# Assay results: patent publication US7541466B2, “Tetrahydroisoquinoline derivatives for treating protein trafficking diseases” (Genzyme Corporation, priority 2003, dated 2009)
# pEC50: −log10 of the molar value.
# Biological target: T1, ΔF508 CFTR (Homo sapiens, UniProt P13569, DEL508-508)
# T1 construct: expressed in transfected cells
# Experiment: MQAE chloride transport assay in C127 cells expressing ΔF508 CFTR
# Type: cell-based, murine
# Settings: for Emax: C127, plateau level in activity at high compound concentration, read-out: % of Maximal Response; for pEC50: chloride transport activity, MQAE; for % Maximal Response @ 1.25 μM: limiting concentration 1.25 μM
# Experimental: C127 cells are a murine mammary epithelial cell line obtained from ATCC (#CRL 1616, American Type Culture Collection, Manassas, Va.). C127 cells were transfected with a bovine papilloma virus-based eukaryotic expression vector containing genes for ΔF508 CFTR and neomycin resistance whose expression was driven by a metallothionein promoter. Clonal cell populations resistant to G418 and positive for staining with anti-CFTR antibody were identified.
# C127 cells expressing ΔF508 CFTR were grown in microtiter plates in DMEM (Dulbecco's Modified Eagle Medium, Hyclone, Logan, Utah) supplemented with fetal bovine serum, antibiotics, and glutamine in a 37° C., 5% CO2 atmosphere. Once confluent, the cells were loaded overnight with the disclosed compounds and a fluorescent dye sensitive to chloride ion concentration, N-(ethoxycarbonylmethyl)-6-methoxy quinolinium bromide (MQAE) (Verkman, Am. J. Physiol. 259 C375-C388 (1990)).
# The following day, cells were washed with chloride-containing buffer to remove extracellular MQAE and to quench intracellular MQAE fluorescence. Chloride buffer was flicked out and replaced with nitrate buffer with added forskolin and IBMX (isobutylmethylxanthine) to stimulate CFTR activity. […] Buffers were adjusted to pH 7.4 and contained: 10 mM HEPES (N-2-Hydroxyethylpiperazine-N′-2-ethanesulfonic acid), 2.4 mM K2HPO4, 0.6 mM KH2PO4, 1.0 mM CaSO4, 1.0 mM MgSO4, 150 mM NaCl or NaNO3, and 25 mM glucose.
# The increase in MQAE fluorescence as a function of time was followed using 360 nm excitation and 460 nm emission wavelengths. Fluorescence increased as chloride flowed out of cells through CFTR and the rate of increase in fluorescence over the first five minutes was taken as a measure of chloride transport activity.
# Cells were treated with mixtures of up to 100 compounds per well for ca. 18 hours before the assay for chloride transport activity. […] Dose-response curves were generated and compounds were ranked based on their EC50 values and maximal responses (the plateau level in activity at high compound concentration, as a percentage of the low temperature response).
# [1] = as a percentage of the low temperature response
# [2] = percentage of low temperature response, C127 ΔF508 CFTR cells
# T1 sequence (P13569 with tags, fused parts or gaps DEL508-508): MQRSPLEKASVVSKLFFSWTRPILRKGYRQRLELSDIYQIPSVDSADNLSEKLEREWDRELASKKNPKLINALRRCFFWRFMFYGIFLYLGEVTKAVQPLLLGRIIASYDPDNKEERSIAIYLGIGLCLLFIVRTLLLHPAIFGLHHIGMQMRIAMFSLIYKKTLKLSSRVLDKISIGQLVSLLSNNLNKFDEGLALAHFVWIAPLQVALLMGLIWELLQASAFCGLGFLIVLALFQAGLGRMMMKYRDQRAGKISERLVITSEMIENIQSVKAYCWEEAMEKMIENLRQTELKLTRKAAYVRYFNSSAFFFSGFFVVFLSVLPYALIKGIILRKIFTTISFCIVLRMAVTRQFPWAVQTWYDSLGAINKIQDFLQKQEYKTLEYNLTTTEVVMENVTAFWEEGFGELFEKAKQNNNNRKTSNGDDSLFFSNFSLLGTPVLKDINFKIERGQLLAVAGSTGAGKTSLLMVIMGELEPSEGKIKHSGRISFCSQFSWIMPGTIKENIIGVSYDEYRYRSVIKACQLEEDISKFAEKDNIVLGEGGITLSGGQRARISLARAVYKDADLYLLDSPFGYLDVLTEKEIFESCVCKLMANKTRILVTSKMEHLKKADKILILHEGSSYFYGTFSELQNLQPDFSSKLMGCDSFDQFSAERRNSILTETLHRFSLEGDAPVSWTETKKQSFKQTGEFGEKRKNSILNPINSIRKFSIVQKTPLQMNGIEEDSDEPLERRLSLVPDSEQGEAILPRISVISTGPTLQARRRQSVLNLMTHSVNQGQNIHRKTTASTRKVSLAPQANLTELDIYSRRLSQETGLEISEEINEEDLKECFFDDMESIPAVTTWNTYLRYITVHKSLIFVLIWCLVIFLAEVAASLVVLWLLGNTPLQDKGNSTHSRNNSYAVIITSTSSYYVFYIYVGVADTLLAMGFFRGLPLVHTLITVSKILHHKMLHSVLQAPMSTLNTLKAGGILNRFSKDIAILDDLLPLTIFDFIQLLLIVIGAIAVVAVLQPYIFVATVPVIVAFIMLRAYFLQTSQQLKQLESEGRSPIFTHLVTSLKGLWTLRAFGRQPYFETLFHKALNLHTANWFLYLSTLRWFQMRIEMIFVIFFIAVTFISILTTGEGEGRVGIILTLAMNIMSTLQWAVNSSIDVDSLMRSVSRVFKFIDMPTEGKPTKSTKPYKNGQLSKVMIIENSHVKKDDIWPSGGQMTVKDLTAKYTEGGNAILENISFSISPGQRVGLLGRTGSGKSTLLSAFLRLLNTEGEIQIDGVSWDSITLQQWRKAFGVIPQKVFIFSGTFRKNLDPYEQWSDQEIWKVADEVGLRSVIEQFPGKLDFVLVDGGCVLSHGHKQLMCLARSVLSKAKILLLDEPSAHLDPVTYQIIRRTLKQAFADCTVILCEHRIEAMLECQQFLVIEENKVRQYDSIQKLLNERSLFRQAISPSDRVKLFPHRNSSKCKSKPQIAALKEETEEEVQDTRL
Emax [1],pEC50 (C127 ΔF508 CFTR cells),Structure (SMILES),other results
79%,–,O=C(Nc1ccc(Cl)cc1)C1Cc2ccccc2CN1C(=O)c1cccc(Oc2ccccc2)c1 (racemic) [Compound 1],–
77%,6.60,Cc1ccc(Oc2cccc(C(=O)N3Cc4ccccc4CC3C(=O)Nc3ccc(Cl)cc3)c2)cc1 (racemic) [Compound 7],–
95%,6.55,CC(C)(C)c1ccc(Oc2cccc(C(=O)N3Cc4ccccc4CC3C(=O)Nc3ccc(Cl)cc3)c2)cc1 (racemic) [Compound 8],–
52%,6.59,"COc1ccccc1Oc1cccc(C(=O)N2Cc3ccccc3CC2C(=O)Nc2ccc(Cl)cc2)c1 (racemic) [Compound 11, (±)-2-[3-(2-Methoxyphenoxy)benzoyl]-1,2,3,4-tetrahydroisoquinoline-3-carboxylic acid(4-chlorophenyl)amide]",–
65%,7.17,COc1ccc(C(=O)N2Cc3ccccc3CC2C(=O)Nc2ccc(Cl)cc2)cc1Oc1ccccc1 (racemic) [Compound 17],–
28%,5.91,O=C(Nc1ccc(Cl)cc1)C1Cc2ccc(O)cc2CN1C(=O)c1cccc(Oc2ccccc2)c1 (racemic) [Compound 20],–
28%,6.77,CCCCCc1ccc(NC(=O)C2Cc3c(C)cccc3CN2C(=O)c2cccc(Oc3ccccc3)c2)cc1 (racemic) [Compound 21],–
–,–,"O=C(Nc1ccc(Cl)cc1)C1Cc2ccccc2CN1C(=O)c1ccc2ccccc2c1 (racemic) [Compound 22, (±)-2-(Naphthalene-2-carbonyl)-1,2,3,4-tetrahydroisoquinoline-3-carboxylic acid(4-chlorophenyl)amide]",% Maximal Response @ 1.25 μM [2]: 36%
70%,6.57,Cc1ccc(NC(=O)C2Cc3ccccc3CN2C(=O)c2cccc(Oc3ccccc3)c2)cc1 (racemic) [Compound 67],"Percent of low-temperature response at 1.25 µM (C127, limiting concentration 1.25 μM, percentage of low temperature response, C127 ΔF508 CFTR cells, read-out: % Maximal Response @ 1.25 μM): 85%"
–,–,"O=C(NCCc1ccc(Br)cc1)C1Cc2ccccc2CN1C(=O)c1cccc(Oc2ccccc2)c1 (racemic) [Compound 73, (±)-2-(3-Phenoxybenzoyl)-1,2,3,4-tetrahydroisoquinoline-3-carboxylic acid[2-(4-bromophenyl)-ethyl]amide]",% Maximal Response @ 1.25 μM [2]: 34%
82%,6.57,CCCc1ccc(NC(=O)C2Cc3ccccc3CN2C(=O)c2cccc(Oc3ccccc3)c2)cc1 (racemic) [Compound 75],–
36%,6.40,O=C(Nc1ccc(C2CCCCC2)cc1)C1Cc2ccccc2CN1C(=O)c1cccc(Oc2ccccc2)c1 (racemic) [Compound 76],–
30%,6.46,CCC(C)c1ccc(NC(=O)C2Cc3ccccc3CN2C(=O)c2cccc(Oc3ccccc3)c2)cc1 (racemic) [Compound 77],–
40%,6.60,CC(C)c1ccc(NC(=O)C2Cc3ccccc3CN2C(=O)c2cccc(Oc3ccccc3)c2)cc1 (racemic) [Compound 78],–
73%,6.64,CCc1ccc(NC(=O)C2Cc3ccccc3CN2C(=O)c2cccc(Oc3ccccc3)c2)cc1 (racemic) [Compound 79],–
79%,6.55,CCOc1cccc(NC(=O)C2Cc3ccccc3CN2C(=O)c2cccc(Oc3ccccc3)c2)c1 (racemic) [Compound 83],–
74%,7.02,CC(=O)N(C)c1ccc(NC(=O)C2Cc3ccccc3CN2C(=O)c2cccc(Oc3ccccc3)c2)cc1 (racemic) [Compound 85],–
74%,–,CCCCCc1ccc(NC(=O)C2Cc3ccccc3CN2C(=O)c2cccc(Oc3ccccc3)c2)cc1 (racemic) [Compound 87],–
66%,7.23,"CCCCCCN(C(C)=O)c1ccc(NC(=O)C2Cc3ccccc3CN2C(=O)c2cccc(Oc3ccccc3)c2)cc1 (racemic) [Compound 90, (±)-2-(3-Phenoxybenzoyl)-1,2,3,4-tetrahydroisoquinoline-3-carboxylic acid[4-(acetylhexylamino)phenyl]amide]",–
60%,–,O=C(Nc1ccc(I)cc1)C1Cc2ccccc2CN1C(=O)c1cccc(Oc2ccccc2)c1 (racemic) [Compound 93],–
80%,6.82,"CCCC(=O)N(C)c1ccc(NC(=O)C2Cc3ccccc3CN2C(=O)c2cccc(Oc3ccccc3)c2)cc1 (racemic) [Compound 95, (±)-2-(3-Phenoxybenzoyl)-1,2,3,4-tetrahydroisoquinoline-3-carboxylic acid[4-(butyrylmethylamino)-phenyl]amide]",–
55%,–,O=C(Nc1cccnc1)C1Cc2ccccc2CN1C(=O)c1cccc(Oc2ccccc2)c1 (racemic) [Compound 98],–

Emax [1],pEC50 (C127 ΔF508 CFTR cells),Structure (SMILES),other results
70%,6.57,COc1ccc(NC(=O)C2Cc3ccccc3CN2C(=O)c2cccc(Oc3ccccc3)c2)cn1 (racemic) [Compound 99],–
59%,6.37,O=C(Nc1nccs1)C1Cc2ccccc2CN1C(=O)c1cccc(Oc2ccccc2)c1 (racemic) [Compound 100],–
70%,–,CCCCN(C(C)=O)c1ccc(NC(=O)C2Cc3ccccc3CN2C(=O)c2cccc(Oc3ccccc3)c2)cc1 (racemic) [Compound 102],–
60%,7.00,COc1ccc(C(=O)N2Cc3ccccc3CC2C(=O)Nc2ccc(Cl)nc2)cc1Oc1ccccc1 (racemic) [Compound 108],–
91%,7.16,CCCCCc1ccc(NC(=O)C2Cc3ccccc3CN2C(=O)c2cccc(OCc3ccccc3)c2)cc1 (racemic) [Compound 113],–
59%,7.06,"CC1c2ccccc2CN(C(=O)c2cccc(Oc3ccccc3)c2)C1C(=O)Nc1ccc(Cl)cc1 (single isomer, unassigned) [Compound 18]",–
–,6.82,"CC1c2ccccc2CN(C(=O)c2cccc(Oc3ccccc3)c2)C1C(=O)Nc1ccc(Cl)cc1 (single isomer, unassigned) [Compound 19]","% of Maximal Response (plateau level in activity at high compound concentration, as a percentage of the low temperature response): 69%"
85%,6.66,"O=C(Nc1ccc(Cl)cc1)C1Cc2ccccc2CN1C(=O)c1cccc(OCc2ccccc2)c1 (single isomer, unassigned; (+)) [Compound 14, (+)-2-(3-Benzyloxybenzoyl)-1,2,3,4-tetrahydroisoquinoline-3-carboxylic acid(4-chlorophenyl)amide]",–
54%,7.18,CC(=O)N(C)c1ccc(NC(=O)[C@@H]2Cc3ccccc3CN2C(=O)c2cccc(Oc3ccccc3)c2)cc1 [Compound 86],–
76%,–,CCCCCc1ccc(NC(=O)[C@@H]2Cc3ccccc3CN2C(=O)c2cccc(Oc3ccccc3)c2)cc1 [Compound 88],–
70%,7.54,CCCCCCN(C(C)=O)c1ccc(NC(=O)[C@@H]2Cc3ccccc3CN2C(=O)c2cccc(Oc3ccccc3)c2)cc1 [Compound 91],–
76%,–,CCCCN(C(C)=O)c1ccc(NC(=O)[C@@H]2Cc3ccccc3CN2C(=O)c2cccc(Oc3ccccc3)c2)cc1 [Compound 103],–
54%,–,"CCCCCc1ccc(NC(=O)[C@@H]2Cc3ccccc3CN2C(=O)c2cccc(Oc3ccccc3)c2)cn1 [Compound 107, (S)-2-(3-Phenoxybenzoyl)-1,2,3,4-tetrahydroisoquinoline-3-carboxylic acid(6-pentylpyridin-3-yl)amide]",–
87%,7.02,O=C(Nc1ccc(F)cc1)[C@@H]1Cc2ccccc2CN1C(=O)c1cc(OC2CCCCC2)ccn1 [Compound 109],–
64%,6.40,COc1ccc(NC(=O)[C@@H]2Cc3ccccc3CN2C(=O)c2cc(OC3CCCCC3)ccn2)cn1 [Compound 110],–
73%,6.82,CCOc1cccc(NC(=O)[C@@H]2Cc3ccccc3CN2C(=O)c2cc(OC3CCCCC3)ccn2)c1 [Compound 111],–
71%,7.41,CCCCCc1ccc(NC(=O)[C@@H]2Cc3ccccc3CN2C(=O)c2cccc(Oc3ccc(OC)cc3)c2)cc1 [Compound 112],–
72%,7.23,CCCCCc1ccc(NC(=O)[C@@H]2Cc3ccccc3CN2C(=O)c2cccc(OCc3ccccc3)c2)cc1 [Compound 114],–
74%,–,CCCCCc1ccc(NC(=O)[C@@H]2Cc3ccccc3CN2C(=O)c2ccc(OC)c(Oc3ccccc3)c2)cc1 [Compound 115],–
88%,7.74,CCCCCc1ccc(NC(=O)[C@@H]2Cc3ccccc3CN2C(=O)c2ccc(OC)c(OCc3ccccc3)c2)cc1 [Compound 116],–
79%,–,CCCCCc1ccc(NC(=O)[C@@H]2Cc3ccccc3CN2C(=O)c2cc(Oc3ccccc3)ccn2)cc1 [Compound 118],–
